This is an account of results in ChEMBL document CHEMBL5154652, “Design, synthesis and anti-hepatocellular carcinoma activity of 3-arylisoquinoline alkaloids” (Eur J Med Chem, 2022).

Calls of active or inactive are those of the source. No cut-off for these calls is given here.

What is called IC50 is the concentration needed to halve the response being measured. Lower therefore signals higher potency.

The subject of assay [1] is SW480. In words: Antiproliferative activity against human SW480 cells after 72 hrs by MTT assay. In kind it is functional, cell-based. To be noted: SW480, 72 h.
The subject of assay [2] is SGC-7901. In words: Antiproliferative activity against human SGC-7901 cells after 72 hrs by MTT assay. It is filed as functional, cell-based. To be noted: SGC-7901, 72 h.
Assay [3] has as its system MDA-MB-231. In words: Antiproliferative activity against human MDA-MB-231 cells after 72 hrs by MTT assay. To be noted: MDA-MB-231, 72 h. In kind it is functional, cell-based. A general note: Tetrazolium dyes change colour on reduction, which living cells bring about.
Assay [4] relates to U-251. In words: Antiproliferative activity against human U-251 cells after 72 hrs by MTT assay. It is filed as functional, cell-based. The note with it: U-251, 72 h.
The test system of assay [5] is RKO. In words: Antiproliferative activity against human RKO cells after 72 hrs by MTT assay. In kind it is functional, cell-based.
Assay [6] has as its target DNA topoisomerase 1 (Homo sapiens) (UniProt P11387). In words: Inhibition of DNA topoisomerase 1 (unknown origin) at 25 to 50 uM measured by agar gel electrophoresis relative to control. To be noted: dose 25-50 µM.
The subject of assay [7] is HGC-27. In words: Antiproliferative activity against human HGC-27 cells after 72 hrs by MTT assay. To be noted: HGC-27, 72 h. In kind it is functional, cell-based.
Assay [8] deals with L02. In words: Antiproliferative activity against human L02 cells after 72 hrs by MTT assay. It is filed as functional, cell-based. To be noted: L02, 72 h.
Assay [9] concerns SK-HEP1. In words: Antiproliferative activity against human SK-HEP1 cells after 72 hrs by MTT assay. In kind it is functional, cell-based. To be noted: SK-HEP1, 72 h.
The test system of assay [10] is A549. In words: Antiproliferative activity against human A549 cells after 72 hrs by MTT assay. It is filed as functional, cell-based. The note with it: A549, 72 h.
The subject of assay [11] is Huh-7. In words: Antiproliferative activity against human Huh-7 cells after 72 hrs by MTT assay. The note with it: Huh-7, 72 h. It is filed as functional, cell-based.
For assay [12], the system named is HT-29. In words: Antiproliferative activity against human HT-29 cells after 72 hrs by MTT assay. In kind it is functional, cell-based. The note with it: HT-29, 72 h.
Assay [13] deals with HepG2. In words: Antiproliferative activity against human HepG2 cells after 72 hrs by MTT assay. It is filed as functional, cell-based. To be noted: HepG2, 72 h.
For assay [14], the system named is HCT-116. In words: Antiproliferative activity against human HCT-116 cells after 72 hrs by MTT assay. It is filed as functional, cell-based. The note with it: HCT-116, 72 h.
For assay [15], the system named is HL-60. In words: Antiproliferative activity against human HL-60 cells after 72 hrs by MTT assay. The note with it: HL-60, 72 h. It is filed as functional, cell-based.
In assay [16] the test system is HCCLM9. In words: Antiproliferative activity against human HCCLM9 cells after 72 hrs by MTT assay. In kind it is functional, cell-based. To be noted: HCCLM9, 72 h.

Chain of DNA topoisomerase 1 (Homo sapiens) (P11387 whole entry): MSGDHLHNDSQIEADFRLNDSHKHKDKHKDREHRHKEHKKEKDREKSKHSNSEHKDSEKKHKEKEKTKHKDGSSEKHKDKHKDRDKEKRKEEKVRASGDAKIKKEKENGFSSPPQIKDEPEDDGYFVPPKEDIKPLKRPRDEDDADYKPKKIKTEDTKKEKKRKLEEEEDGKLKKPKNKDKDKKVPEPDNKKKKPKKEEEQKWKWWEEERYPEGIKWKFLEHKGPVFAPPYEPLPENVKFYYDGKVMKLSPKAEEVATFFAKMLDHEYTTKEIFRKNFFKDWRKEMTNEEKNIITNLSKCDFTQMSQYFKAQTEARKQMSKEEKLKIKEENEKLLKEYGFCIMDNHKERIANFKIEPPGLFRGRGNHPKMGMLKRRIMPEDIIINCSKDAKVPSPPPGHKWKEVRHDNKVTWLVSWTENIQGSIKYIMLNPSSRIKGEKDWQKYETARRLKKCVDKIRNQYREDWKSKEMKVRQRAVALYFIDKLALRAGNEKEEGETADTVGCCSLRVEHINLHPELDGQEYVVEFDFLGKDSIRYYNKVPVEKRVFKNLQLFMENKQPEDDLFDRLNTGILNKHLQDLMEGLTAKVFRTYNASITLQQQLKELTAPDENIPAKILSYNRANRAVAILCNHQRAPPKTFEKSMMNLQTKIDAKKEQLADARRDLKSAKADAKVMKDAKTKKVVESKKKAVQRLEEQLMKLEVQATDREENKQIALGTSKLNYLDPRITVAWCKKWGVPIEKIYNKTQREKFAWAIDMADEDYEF

Consider `CN(C)Cc1cc2c(cc1-c1cc3ccc4c(c3cn1)OCO4)OCO2`, for which the IC50 in assay [1] worked out at 8.54 µM; in assay [2], 48.2 µM; in [3] it was 12.8 µM; in [4] it was 24.6 µM; in assay [5], 28.7 µM; in assay [7], 19.1 µM. Also, the IC50 in assay [8] was over 150 µM; in assay [9], 17.2 µM; in [10], 17.4 µM; in assay [11] it was 11.2 µM; in assay [12], 36 µM; in assay [13], 20.8 µM. For the same compound, the concentration for half-maximal inhibition (IC50) in assay [14] is 67.2 µM; in assay [15] it was 115 µM; in [16], 8.83 µM. For the same compound, in assay [6], the inhibition result was “Active”.
